Assay results as given in ChEMBL document CHEMBL1147253, “New polyoxygenated farnesylcyclohexenones, deacetoxyyanuthone A and its hydro derivative from the marine-derived fungus Penicillium sp” (2003).
Values after ≈ are worked out from the molar mass of the structure shown.

Tests used:
Type in all cases: functional
Conditions in all cases: read-out: ED50 (the source's name)
[1] = test system: A549; test: Cytotoxicity against human A549 cells
[2] = test system: SK-MEL-2; test: Cytotoxicity against human SK-MEL-2 cells
[3] = test system: SK-OV-3; test: Cytotoxicity against human SKOV3 cells
[4] = test system: XF498; test: Cytotoxicity against human XF498 cells
[5] = test system: HCT-15; test: Cytotoxicity against human HCT15 cells

| SMILES | EC50 [1] [µg/mL] | EC50 [2] [µg/mL] | EC50 [3] [µg/mL] | EC50 [4] [µg/mL] | EC50 [5] [µg/mL] |
| --- | --- | --- | --- | --- | --- |
| CC(C)=CCC/C(C)=C/CC/C(C)=C/C[C@@]12O[C@@H]1[C@H](O)C(C)=CC2=O | 7.74 (≈ 22.5 µM) | 3.86 (≈ 11.2 µM) | 6.35 (≈ 18.4 µM) | 10 (≈ 29.1 µM) | 10.1 (≈ 29.2 µM) |
| CC(C)=CCC/C(C)=C\CC/C(C)=C\Cc1cc(O)c(C)cc1O | 4.73 (≈ 14.4 µM) | 4.8 (≈ 14.6 µM) | 5.31 (≈ 16.2 µM) | 5.94 (≈ 18.1 µM) | 6.11 (≈ 18.6 µM) |
| CC(C)=CCC/C(C)=C\CC/C(C)=C\CC1=CC(=O)C(C)=CC1=O | 25.4 (≈ 77.9 µM) | 18.4 (≈ 56.4 µM) | 37.3 (≈ 114 µM) | 38.1 (≈ 117 µM) | 42.6 (≈ 130 µM) |
| COc1cccc2c1C(=O)c1c(O)c3c(c(O)c1C2=O)C[C@@](O)(C(=O)CO)C[C@@H]3O[C@H]1C[C@H](N)[C@H](O)[C@H](C)O1 [DOXORUBICIN] | 0.02 (≈ 0.0368 µM) | 0.04 (≈ 0.0736 µM) | 0.09 (≈ 0.166 µM) | 0.02 (≈ 0.0368 µM) | 0.79 (≈ 1.45 µM) |
